{
  "source": "paper PMC10530652",
  "about": "(BME Frontiers, 2021)",
  "key": {"[1]": {"system": "primary human lung tissue", "experiment": "Ex vivo fibre-based (FCFM) imaging of human lung tissue with FIB One", "details": "FIB One 1 μM, imaged 10 min, FCFM 488 nm excitation, n=9", "experimental": "Human lung tissue samples (lung tumour and noncancerous adjacent tissue) were obtained following surgical resection and stored at -80° C until use. Processing for multiwell plate reader assay or zymography analysis was conducted as follows: 1 mm×4 mm sections were homogenised in 400 μL MMP buffer in Precellys 2.8 mm ceramic bead tubes (VWR) using a Pecellys 24 homogeniser. Homogenised tissue was adjusted to 4 mg mL^-1 protein (determined by a Pierce BCA Total Protein Assay Kit (Thermo Fisher Scientific), following the manufacturer’s instructions). Multiwell plate reader assays were performed as previously described, replacing the MMP buffer and MMP enzymes for the homogenised and protein-adjusted lung tissue.\nFor ex vivo imaging, human lung tissue was sliced into 1 mm×4 mm sections and placed in the wells of a 96-well plate with 100 μL of MMP buffer and 30 nM MMP-13. […] The fluorescence for each sample was calculated by determining the average fluorescence per frame for each time point. […] Five independent patient specimens were collected and analysed. RFUs collected from off-target frames (showing motion artefact or absence of any fluorescence) were omitted during analysis."}, "erythrocyte": {"system": "erythrocyte", "experiment": "Erythrocyte hemolysis", "format": "cell-based"}, "[2]": {"system": "Salmonella typhimurium strain TA98", "experiment": "Reduced test article AMES test, TA98", "format": "cell-based", "details": "up to 250 μg/well, in the absence and presence of rat liver S-9", "experimental": "These conditions included treatments at concentrations up to 250 μg/well (a 20-fold pro rata reduction from the standard regulatory Ames assay maximum concentration), in the absence and in the presence of a rat liver metabolic activation system (S-9)."}, "[3]": {"experiment": "Stability study of AZD1236 aqueous formulation (HPLC)", "format": "physicochemical", "details": "for Conc. / pH: aqueous formulation; for Conc. / Total imp. RRT(%): HPLC; for ∆%: relative to starting concentration of 70µg/5mL", "experimental": "Summary table of stability as assessed by HPLC over 24 months stored under GMP conditions at RT. Data shown in blue represents inverted position vials. ∆% is relative to starting concentration of 70µg/5mL at time zero. Acceptance criteria: Retention time (RT) for AZD1236 is 3.97 min (Range 3.40-4.50 min). Total impurities – report as RRT (%) for each impurity. Biological functionality LOD = >21µg/5mL. pH 7.5 (7.0-8.0)."}, "MMP-12": {"system": "MMP-12", "details": "placebo-controlled, 55 COPD patients; cited from earlier work", "text": "(§1) MMP inhibition has been identified as a target for drug interventions in inflammatory diseases. MMP inhibitors used in trials as cancer therapies were disappointing due to lack of efficacy and significant adverse effects. Studies have also been limited by a lack of quantifiable biomarkers to reflect on their in vivo and functional activity. […] It had previously been used in a phase 2A safety and tolerab ..."}, "MMP-9": {"molecular_target": "T1, MMP-9 (Homo sapiens, UniProt P14780)", "T1 construct": "recombinant MMPs (Enzo Life Sciences) (active domains of MMP-1, MMP-2, MMP-3, MMP-7, MMP-8, MMP-9, MMP-10, MMP-11, MMP-12, and MMP-13); purchased Enzo Life Sciences", "T1 sequence (P14780 107-444 limits assumed)": "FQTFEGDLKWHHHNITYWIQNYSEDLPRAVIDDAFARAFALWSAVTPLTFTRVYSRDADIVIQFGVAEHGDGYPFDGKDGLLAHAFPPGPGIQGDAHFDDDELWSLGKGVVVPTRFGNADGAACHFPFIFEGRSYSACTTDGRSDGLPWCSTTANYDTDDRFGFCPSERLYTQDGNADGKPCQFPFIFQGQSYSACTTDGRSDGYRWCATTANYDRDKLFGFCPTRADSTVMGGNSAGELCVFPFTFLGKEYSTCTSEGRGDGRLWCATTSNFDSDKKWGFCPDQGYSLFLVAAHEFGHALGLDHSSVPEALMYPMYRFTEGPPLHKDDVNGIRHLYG", "details": "placebo-controlled, 55 COPD patients; cited from earlier work", "text": "as §1"}, "emphysema patients": {"system": "emphysema patients", "details": "74 emphysema patients, placebo or AZD1236 75 mg twice daily for 6 weeks; cited from earlier work", "text": "as §1"}, "[4]": {"details": "room temperature, 12m, 1st of 2 vials"}, "[5]": {"details": "room temperature, 12m, 2nd of 2 vials"}, "[6]": {"details": "room temperature, 18m, 1st of 2 vials"}, "[7]": {"details": "room temperature, 18m, 2nd of 2 vials"}, "[8]": {"details": "room temperature, 24m, 1st of 2 vials"}, "[9]": {"details": "room temperature, 24m, 2nd of 2 vials"}, "[10]": {"details": "room temperature, 1m, 1st of 2 vials"}, "[11]": {"details": "room temperature, 1m, 2nd of 2 vials"}, "[12]": {"details": "room temperature, 3m, 1st of 2 vials"}, "[13]": {"details": "room temperature, 3m, 2nd of 2 vials"}, "[14]": {"details": "room temperature, 6m, 1st of 2 vials"}, "[15]": {"details": "room temperature, 6m, 2nd of 2 vials"}, "[16]": {"details": "room temperature, 10.5m, 1st of 2 vials"}, "[17]": {"details": "room temperature, 10.5m, 2nd of 2 vials"}, "[18]": {"details": "room temperature, 24h, 1st of 2 vials"}, "[19]": {"details": "room temperature, 24h, 2nd of 2 vials"}, "[20]": {"details": "room temperature, 15d, 1st of 2 vials"}, "[21]": {"details": "room temperature, 15d, 2nd of 2 vials"}},
  "data": [
    {"substance": "(Pro-Phe-Gly-Nle-Lys-βAla)3 [FIB One]", "values": [
      {"measurement": "cleavage of FIB One", "setting": "[1]", "result": "cleaved"},
      {"measurement": "erythrocyte hemolysis", "setting": "erythrocyte", "result": "absence of erythrocyte hemolysis"},
      {"measurement": "mutation induction", "setting": "[2]", "result": "did not induce mutation"}
    ]},
    {"substance": "AZD1236", "values": [
      {"measurement": "biological functionality in aqueous formulation", "setting": "[3]; 24 months, GMP conditions at RT, biological functionality LOD = >21µg/5mL", "result": "remains biologically functional"},
      {"measurement": "degradation in aqueous formulation of the drug product (HPLC traces)", "setting": "[3]; after 24 months, stored at ambient temperature", "result": "no degradation"},
      {"measurement": "Conc.", "setting": "[3]; room temperature, 1m, 1st of 2 vials (one inverted)", "result": 77.0, "unit": "µg per 5mL"},
      {"measurement": "Conc.", "setting": "[3]; room temperature, 1m, 2nd of 2 vials (one inverted)", "result": 76.8, "unit": "µg per 5mL"},
      {"measurement": "Conc.", "setting": "[3]; room temperature, 3m, 1st of 2 vials (one inverted)", "result": 69.4, "unit": "µg per 5mL"},
      {"measurement": "Conc.", "setting": "[3]; room temperature, 3m, 2nd of 2 vials (one inverted)", "result": 69.4, "unit": "µg per 5mL"},
      {"measurement": "Conc.", "setting": "[3]; room temperature, 6m, 1st of 2 vials (one inverted)", "result": 70.8, "unit": "µg per 5mL"},
      {"measurement": "Conc.", "setting": "[3]; room temperature, 6m, 2nd of 2 vials (one inverted)", "result": 70.6, "unit": "µg per 5mL"},
      {"measurement": "Conc.", "setting": "[3]; room temperature, 10.5m, 1st of 2 vials (one inverted)", "result": 71.1, "unit": "µg per 5mL"},
      {"measurement": "Conc.", "setting": "[3]; room temperature, 10.5m, 2nd of 2 vials (one inverted)", "result": 70.7, "unit": "µg per 5mL"},
      {"measurement": "pH", "setting": "[3]; [4]", "result": 7.5},
      {"measurement": "pH", "setting": "[3]; [5]", "result": 7.5},
      {"measurement": "Conc.", "setting": "[3]; room temperature, 12m, 1st of 2 vials (one inverted)", "result": 70.0, "unit": "µg per 5mL"},
      {"measurement": "Conc.", "setting": "[3]; room temperature, 12m, 2nd of 2 vials (one inverted)", "result": 69.2, "unit": "µg per 5mL"},
      {"measurement": "pH", "setting": "[3]; [6]", "result": 7.5},
      {"measurement": "pH", "setting": "[3]; [7]", "result": 7.5},
      {"measurement": "Conc.", "setting": "[3]; room temperature, 18m, 1st of 2 vials (one inverted)", "result": 70.4, "unit": "µg per 5mL"},
      {"measurement": "Conc.", "setting": "[3]; room temperature, 18m, 2nd of 2 vials (one inverted)", "result": 70.2, "unit": "µg per 5mL"},
      {"measurement": "pH", "setting": "[3]; [8]", "result": 7.5},
      {"measurement": "pH", "setting": "[3]; [9]", "result": 7.5},
      {"measurement": "Conc.", "setting": "[3]; room temperature, 24m, 1st of 2 vials (one inverted)", "result": 72.96, "unit": "µg per 5mL"},
      {"measurement": "Conc.", "setting": "[3]; room temperature, 24m, 2nd of 2 vials (one inverted)", "result": 72.52, "unit": "µg per 5mL"},
      {"measurement": "Conc.", "setting": "[3]; room temperature, 24h, 1st of 2 vials (one inverted)", "result": 74.3, "unit": "µg per 5mL"},
      {"measurement": "Conc.", "setting": "[3]; room temperature, 24h, 2nd of 2 vials (one inverted)", "result": 74.5, "unit": "µg per 5mL"},
      {"measurement": "Conc.", "setting": "[3]; room temperature, 15d, 1st of 2 vials (one inverted)", "result": 70.2, "unit": "µg per 5mL"},
      {"measurement": "Conc.", "setting": "[3]; room temperature, 15d, 2nd of 2 vials (one inverted)", "result": 70.3, "unit": "µg per 5mL"},
      {"measurement": "pH", "setting": "[3]; timepoint 0", "result": 7.5},
      {"measurement": "∆%", "setting": "[3]; [10]", "result": "+10.0%"},
      {"measurement": "∆%", "setting": "[3]; [11]", "result": "+9.70%"},
      {"measurement": "∆%", "setting": "[3]; [12]", "result": -0.90, "unit": "%"},
      {"measurement": "∆%", "setting": "[3]; [13]", "result": -0.90, "unit": "%"},
      {"measurement": "∆%", "setting": "[3]; [14]", "result": "+1.00%"},
      {"measurement": "∆%", "setting": "[3]; [15]", "result": "+0.80%"},
      {"measurement": "∆%", "setting": "[3]; [16]", "result": "+1.50%"},
      {"measurement": "∆%", "setting": "[3]; [17]", "result": "+1.00%"},
      {"measurement": "∆%", "setting": "[3]; [4]", "result": "+0.00%"},
      {"measurement": "∆%", "setting": "[3]; [5]", "result": -1.15, "unit": "%"},
      {"measurement": "∆%", "setting": "[3]; [6]", "result": "+0.6%"},
      {"measurement": "∆%", "setting": "[3]; [7]", "result": "+0.3%"},
      {"measurement": "∆%", "setting": "[3]; [8]", "result": "+4.2%"},
      {"measurement": "∆%", "setting": "[3]; [9]", "result": "+3.6%"},
      {"measurement": "∆%", "setting": "[3]; [18]", "result": "+6.0%"},
      {"measurement": "∆%", "setting": "[3]; [19]", "result": "+6.0%"},
      {"measurement": "∆%", "setting": "[3]; [20]", "result": "+0.14%"},
      {"measurement": "∆%", "setting": "[3]; [21]", "result": "+0.21%"},
      {"measurement": "Total imp. RRT(%)", "setting": "[3]; [10]", "result": "ND/NQ ND/NQ"},
      {"measurement": "Total imp. RRT(%)", "setting": "[3]; [11]", "result": "ND/NQ ND/NQ"},
      {"measurement": "Total imp. RRT(%)", "setting": "[3]; [12]", "result": "ND/NQ ND/NQ"},
      {"measurement": "Total imp. RRT(%)", "setting": "[3]; [13]", "result": "ND/NQ ND/NQ"},
      {"measurement": "Total imp. RRT(%)", "setting": "[3]; [14]", "result": "ND/NQ ND/NQ"},
      {"measurement": "Total imp. RRT(%)", "setting": "[3]; [15]", "result": "ND/NQ ND/NQ"},
      {"measurement": "Total imp. RRT(%)", "setting": "[3]; [16]", "result": "ND/NQ ND/NQ"},
      {"measurement": "Total imp. RRT(%)", "setting": "[3]; [17]", "result": "ND/NQ ND/NQ"},
      {"measurement": "Total imp. RRT(%)", "setting": "[3]; [4]", "result": "ND/NQ ND/NQ"},
      {"measurement": "Total imp. RRT(%)", "setting": "[3]; [5]", "result": "ND/NQ ND/NQ"},
      {"measurement": "Total imp. RRT(%)", "setting": "[3]; [6]", "result": "ND/NQ ND/NQ"},
      {"measurement": "Total imp. RRT(%)", "setting": "[3]; [7]", "result": "ND/NQ ND/NQ"},
      {"measurement": "Total imp. RRT(%)", "setting": "[3]; [8]", "result": "ND/NQ ND/NQ"},
      {"measurement": "Total imp. RRT(%)", "setting": "[3]; [9]", "result": "ND/NQ ND/NQ"},
      {"measurement": "Total imp. RRT(%)", "setting": "[3]; [18]", "result": "ND/NQ ND/NQ"},
      {"measurement": "Total imp. RRT(%)", "setting": "[3]; [19]", "result": "ND/NQ ND/NQ"},
      {"measurement": "Total imp. RRT(%)", "setting": "[3]; [20]", "result": "ND/NQ ND/NQ"},
      {"measurement": "Total imp. RRT(%)", "setting": "[3]; [21]", "result": "ND/NQ ND/NQ"},
      {"measurement": "MMP-12 inhibition in induced sputum", "setting": "MMP-12", "result": "failed to demonstrate"},
      {"measurement": "MMP-9 inhibition in induced sputum", "setting": "MMP-9", "result": "failed to demonstrate"},
      {"measurement": "effect on the secondary lung physiology endpoints", "setting": "emphysema patients", "result": "no effect"}
    ]}
  ]
}
